The test relates to L1210 leukemia ip in BDF1 mice, survival T/C. The experiment in a line: NCI In Vivo Anticancer Drug Screen. Data for tumor model L1210 Leukemia (intraperitoneal) in B6D2F1 (BDF1) mice. The settings on record: endpoint: mean survival time, higher = longer survival. The essentials:
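In this screen, tumor-bearing mice given compound are compared to those given vehicle, and their survival values are reported as a treated-to-control quotient.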

The mark [1] stands for this setting: dose: 100.0 mg/kg/injection, schedule: Q04DX002 (ip), vehicle: Klucel (hydroxypropylcellulose) (HPC).
The mark [2] stands for this setting: dose: 200.0 mg/kg/injection, schedule: Q04DX002 (ip), vehicle: Klucel (hydroxypropylcellulose) (HPC).
[3] abbreviates: dose: 400.0 mg/kg/injection, schedule: Q04DX002 (ip), vehicle: Klucel (hydroxypropylcellulose) (HPC).
The mark [4] stands for this setting: dose: 100.0 mg/kg/injection, schedule: Q04DX003 (ip), vehicle: saline.
The mark [5] stands for this setting: dose: 100.0 mg/kg/injection, schedule: Q04DX002 (ip), vehicle: saline with Tween-80.
The mark [6] stands for this setting: dose: 200.0 mg/kg/injection, schedule: Q04DX002 (ip), vehicle: saline with Tween-80.
The mark [7] stands for this setting: dose: 100.0 mg/kg/injection, schedule: Q01DX001 (ip), vehicle: saline.
The mark [8] stands for this setting: dose: 200.0 mg/kg/injection, schedule: Q01DX001 (ip), vehicle: saline.
[9] abbreviates: dose: 20.0 mg/kg/injection, schedule: Q01DX009 (ip), vehicle: saline.
Setting [10] is: dose: 400.0 mg/kg/injection, schedule: Q04DX002 (ip), vehicle: saline with Tween-80.

19 compounds from PubChem BioAssay AID248 (DTP/NCI, 2004) can be followed below.

Toxic doses and inconclusive results are not listed.

In the case of `CNC(=N)c1ccc(NC(=N)c2ccc(NC(=O)Nc3cccc(NC(=O)Nc4ccc(C(=N)Nc5ccc(C(=N)NC)cc5)cc4)c3)cc2)cc1`, the T/C is 103 % of control (dose: 0.31 mg/kg/injection, schedule: Q01DX015 (ip), vehicle: water); 115 % of control (dose: 0.62 mg/kg/injection, schedule: Q01DX015 (ip), vehicle: water); 154 % of control (dose: 1.0 mg/kg/injection, schedule: Q01DX Z (ip), vehicle: water); 158 % of control (dose: 2.0 mg/kg/injection, schedule: Q01DX Z (ip), vehicle: water); 150 % of control (dose: 3.5 mg/kg/injection, schedule: Q01DX Z (ip), vehicle: water); 150 % of control (dose: 4.0 mg/kg/injection, schedule: Q01DX Z (ip), vehicle: water). The T/C runs as follows: (dose: 5.0 mg/kg/injection, schedule: Q01DX015 (ip), vehicle: water) 162 % of control; (dose: 7.0 mg/kg/injection, schedule: Q01DX Z (ip), vehicle: water) 172 % of control; (dose: 7.5 mg/kg/injection, schedule: Q01DX015 (ip), vehicle: water) 203 % of control; (dose: 10.0 mg/kg/injection, schedule: Q01DX015 (ip), vehicle: water) 241 % of control; (dose: 10.0 mg/kg/injection, schedule: Q01DX Z (ip), vehicle: water) 236 % of control; (dose: 14.25 mg/kg/injection, schedule: Q01DX Z (ip), vehicle: water) 193 % of control. Further, the T/C is 340 % of control (dose: 15.0 mg/kg/injection, schedule: Q01DX015 (ip), vehicle: water) and 92 % of control (dose: 28.5 mg/kg/injection, schedule: Q01DX Z (ip), vehicle: water).
With `O=C(Oc1ccc(S(=O)(=O)F)cc1Cl)c1ccc([N+](=O)[O-])cc1`, the T/C is 118 % of control under setting [1], 96 % of control under setting [2] and 96 % of control under setting [3].
`CCN1CCC(CCOC)(CN2c3ccccc3Sc3ccc(Cl)cc32)C1` (configuration not stated): the T/C under setting [4] is 89 % of control.
Turning to `COc1cc(/C=N\N=C(/C)c2ccc(C)cc2C)cc(OC)c1OC`, the T/C is, setting by setting: under setting [5], 88 % of control; under setting [6], 92 % of control.
For the compound `COc1cc2c(c(OC)c1OC)-c1ccc(SC)c(=O)cc1C(N=C(NC1OCC(OC(C)=O)C(OC(C)=O)C1OC(C)=O)SN(NC(=O)OCc1ccccc1)C(=O)OCc1ccccc1)CC2` (configuration not stated), the T/C is 95 % of control (dose: 25.0 mg/kg/injection, schedule: Q01DX001 (ip), vehicle: saline with Tween-80); 95 % of control (dose: 50.0 mg/kg/injection, schedule: Q01DX001 (ip), vehicle: saline with Tween-80); 100 % of control (dose: 100.0 mg/kg/injection, schedule: Q01DX001 (ip), vehicle: saline with Tween-80).
As for `c1ccc(N=NC(c2ccccc2)c2ccccc2)cc1`, the T/C is 106 % of control (dose: 50.0 mg/kg/injection, schedule: Q04DX003 (ip), vehicle: saline); 95 % of control under setting [4]; 106 % of control (dose: 200.0 mg/kg/injection, schedule: Q04DX003 (ip), vehicle: saline).
For `CCC[N+]12CC=C(CO)C1C(O)CC2` (configuration not stated), the T/C is 103 % of control under setting [7]; 100 % of control under setting [8]; 110 % of control (dose: 400.0 mg/kg/injection, schedule: Q01DX001 (ip), vehicle: saline).
In the case of `COc1ccc(O)c2c(C(=O)c3ccccc3)c[nH]c12`, the T/C reads like this: (dose: 25.0 mg/kg/injection, schedule: Q04DX002 (ip), vehicle: Klucel (hydroxypropylcellulose) (HPC)) 87 % of control; (dose: 50.0 mg/kg/injection, schedule: Q04DX002 (ip), vehicle: Klucel (hydroxypropylcellulose) (HPC)) 95 % of control; under setting [1], 95 % of control.
On to `Cc1ccc([N+](=O)[O-])cc1NC(=O)Nc1cc(Cl)ccc1O`, for which the T/C runs as follows: (dose: 100.0 mg/kg/injection, schedule: Q01DX009 (ip), vehicle: Klucel (hydroxypropylcellulose) (HPC)) 93 % of control; (dose: 200.0 mg/kg/injection, schedule: Q01DX009 (ip), vehicle: Klucel (hydroxypropylcellulose) (HPC)) 96 % of control; (dose: 400.0 mg/kg/injection, schedule: Q01DX009 (ip), vehicle: Klucel (hydroxypropylcellulose) (HPC)) 95 % of control.
Consider `Cc1ccc2ccc3ccc4ccccc4c3c2c1`, for which the T/C runs as follows: (dose: 50.0 mg/kg/injection, schedule: Q01DX001 (ip), vehicle: Klucel (hydroxypropylcellulose) (HPC)) 101 % of control; (dose: 100.0 mg/kg/injection, schedule: Q01DX001 (ip), vehicle: Klucel (hydroxypropylcellulose) (HPC)) 95 % of control; (dose: 200.0 mg/kg/injection, schedule: Q01DX001 (ip), vehicle: Klucel (hydroxypropylcellulose) (HPC)) 101 % of control.
With `C[n+]1ccc(/C=C/c2ccc(O)c3ccccc23)cc1`, the T/C is 100 % of control (dose: 75.0 mg/kg/injection, schedule: Q01DX001 (ip), vehicle: saline) and 101 % of control (dose: 150.0 mg/kg/injection, schedule: Q01DX001 (ip), vehicle: saline).
On to `CC(=O)c1cc(Cl)ccc1Cl`, for which the T/C by setting is: (dose: 100.0 mg/kg/injection, schedule: Q04DX002 (ip), vehicle: saline) 97 % of control; (dose: 200.0 mg/kg/injection, schedule: Q04DX002 (ip), vehicle: saline) 103 % of control; (dose: 400.0 mg/kg/injection, schedule: Q04DX002 (ip), vehicle: saline) 103 % of control.
With `C=C1C(=O)OCC1(C(=O)OCC)C(=O)OCC`, the T/C (dose: 5.0 mg/kg/injection, schedule: Q01DX009 (ip), vehicle: saline) is 98 % of control; the T/C (dose: 10.0 mg/kg/injection, schedule: Q01DX009 (ip), vehicle: saline) was 103 % of control; the T/C under setting [9] is 95 % of control.
As to `COc1ccc(Cc2c3cc(OC)c(OC)cc3cc[n+]2Cc2ccc(N(CCCl)CCCl)cc2)cc1OC`, the T/C (dose: 75.0 mg/kg/injection, schedule: Q01DX001 (ip), vehicle: carboxymethylcellulose (CMC)) was 100 % of control and the T/C (dose: 150.0 mg/kg/injection, schedule: Q01DX001 (ip), vehicle: carboxymethylcellulose (CMC)) is 94 % of control.
As for `CCOC(=N)CC(O)C(Cl)(Cl)Cl` (configuration not stated), the T/C is 99 % of control under setting [5], 103 % of control under setting [6] and 92 % of control under setting [10].
Consider `CCCCCCN1C(C)C1C(C)C` (configuration not stated), for which the T/C was 114 % of control under setting [9]; 105 % of control (dose: 20.0 mg/kg/injection, schedule: Q04DX003 (ip), vehicle: Klucel (hydroxypropylcellulose) (HPC)); 115 % of control (dose: 40.0 mg/kg/injection, schedule: Q01DX009 (ip), vehicle: saline); 100 % of control (dose: 40.0 mg/kg/injection, schedule: Q04DX003 (ip), vehicle: Klucel (hydroxypropylcellulose) (HPC)); 107 % of control (dose: 80.0 mg/kg/injection, schedule: Q01DX009 (ip), vehicle: saline); 105 % of control (dose: 80.0 mg/kg/injection, schedule: Q04DX003 (ip), vehicle: Klucel (hydroxypropylcellulose) (HPC)).
Turning to `Fc1cc(F)c(F)c(Nc2c(F)c(F)c(Br)c(F)c2F)c1F`, the T/C was 92 % of control (dose: 25.6 mg/kg/injection, schedule: Q04DX002 (ip), vehicle: saline with Tween-80); 103 % of control (dose: 64.0 mg/kg/injection, schedule: Q04DX002 (ip), vehicle: saline with Tween-80); 92 % of control (dose: 160.0 mg/kg/injection, schedule: Q04DX002 (ip), vehicle: saline with Tween-80); 95 % of control under setting [10].
As for `CCOC(=O)C(I)CC` (configuration not stated), the T/C is 107 % of control (dose: 25.0 mg/kg/injection, schedule: Q01DX009 (ip), vehicle: water); 93 % of control (dose: 50.0 mg/kg/injection, schedule: Q01DX009 (ip), vehicle: water); 87 % of control (dose: 100.0 mg/kg/injection, schedule: Q01DX009 (ip), vehicle: water).
In the case of `Nc1cc(Cl)c(S(=O)(=O)O)cc1Cl`, the T/C runs as follows: (dose: 50.0 mg/kg/injection, schedule: Q01DX009 (ip), vehicle: saline with Tween-80) 90 % of control; under setting [7], 95 % of control; (dose: 100.0 mg/kg/injection, schedule: Q01DX009 (ip), vehicle: saline with Tween-80) 107 % of control; under setting [1], 100 % of control; under setting [8], 86 % of control; (dose: 200.0 mg/kg/injection, schedule: Q01DX009 (ip), vehicle: saline with Tween-80) 97 % of control. Also, the T/C is, setting by setting: under setting [2], 91 % of control; under setting [3], 88 % of control.
